Reference: patent US20220306623A1, “PYRIDYL OR PYRIMIDYL MTOR KINASE INHIBITORS” (GLAXOSMITHKLINE INTELLECTUAL PROPERTY DEVELOPMENT LIMITED, priority 2019, published 2022)

What follows are molecules tested on phosphorylated Akt at serine 473 (pAKTs473) in primary human lung fibroblasts (assay: High throughput phosphorylated Akt (Ser473) in vitro immunoassay (MSD)). Settings: Fibroblast, primary human lung fibroblasts (Lonza), 384-well, compound 1 h, PDGF-BB 10 ng/ml 10 min, read-out: mean pIC50, pAKTser473 high throughput immunoassay (converted).
Type: cell-based
Text: Immunoassay to measure effect of test compounds on phosphorylated Akt at serine 473 (pAKTs473) in primary human lung fibroblasts (Lonza Group Ltd, Basel, Switzerland, Catalogue No. CC-2512) using the MesoScale Discovery (MSD) platform to quantify levels of total Akt and pAKTser473.
Human lung fibroblasts were routinely maintained in fibroblast basal medium supplemented with 2% foetal bovine serum (FBS), 0.1% human fibroblast growth factor (FGF)-B, 0.1% insulin, 0.1% GA-100 (Lonza Group Ltd, Basel, Switzerland, Catalogue No. CC-3132) at 37° C. in 5% CO2 according to the manufacturer's protocol.
For the assay, cells were harvested using Trypsin/EDTA, (Lonza Group Ltd, Basel, Switzerland, Catalogue No. CC-5012), at working concentration of 0.025%, resuspended to give 3×10^5 cells/ml and 50 ul/well seeded into 384-well plates (Greiner Group, Kremsmunster, Austria, Catalogue No. 781091) in media containing 0.4% FBS and incubated o/n at 37° C. in 5% CO2.
Test compounds were dissolved in 100% DMSO to give 10 mM stock solutions and serially diluted to generate an 11-point concentration response curve. Compound were further diluted by […] into 384-well V-bottom polypropylene plates (Greiner Group, Kremsmunster, Austria, Catalogue No. 781280) with media containing 0.4% FBS to give 50 µM top compound concentration in 0.5% DMSO.
Compounds were transferred to 384-well plates contacting cells (0.1% DMSO final) and incubated for 1 h at 37° C. in 5% CO2, prior to stimulation with platelet-derived growth factor (PDGF)-BB (R&D Systems, Catalogue No. 220-BB) at 10 ng/ml (final) for 10 min at RT. Cell assay plates were incubated on ice and treated with lysis buffer (Cell Signalling Technology, Catalogue No. 9806) containing protease and phosphatase inhibitors (Thermo Scientific, Catalogue No. 78444) followed by shaking for 30 min at 4° C.
MSD plates (MSD, MA6000 384-well GAR plate, Catalogue No. L21RA-2) were blocked with blocking buffer containing TBS (MSD, Cat. No. R61TX-1) with 0.5% bovine serum albumin (BSA) (Sigma Aldrich, Cat. No. A7906), 0.1% tween-20 (Sigma Aldrich, Catalogue No. P2287) and coated with rabbit-anti-human pAkt (s473) ab (Cell Signalling Technology, Catalogue No. CST #4060) at RT with shaking, followed by washing (×3) with 1×TBS wash reagent containing 0.1% Tween-20. Cell lysates (30 ul) were added and MSD plates centrifuged at 1000 rpm at 4° C. o/n.
Plates were washed with 1×TBS wash buffer (×3), prior to addition of mouse-anti-human-total Akt ab (1 mg/ml) (Upstate (Milipore), Catalogue No. 05-591) in blocking buffer and shaken at RT for 1 h. After washing with 1×TBS wash buffer (×3), plates were incubated with goat-anti-mouse SULFO-TAG detection ab (MSD, Catalogue No. R32AC-1) (1:500 in blocking buffer) for 1 h at RT. Plates were washed with 1×TBS (×3) and read buffer (2×) (MSD, Catalogue No. R92TC-1) added before detecting electrochemiluminescence (MSD Sector Imager 6000).
Data analysis was performed by determining % inhibition values for test compounds relative to the minimum (+PDGF-BB stimulation) and maximum responses (no PDGF-BB stimulation) with non-linear regression analysis to determine IC50 values for test compounds.

How did the IC50 turn out when `CC[C@H]1COCCN1c1cc(CS(C)(=O)=O)nc(-c2ccc3[nH]c(CNC)cc3n2)n1` [Example 1, [(5-{4-[(3S)-3-ethylmorpholin-4-yl]-6-(methanesulfonylmethyl)pyrimidin-2-yl}-1H-pyrrolo[3,2-b]pyridin-2-yl)methyl](methyl)amine] was run?
Its IC50 is 2.51 to 25.1 nM.

Which IC50 does the source give for `CNCc1cc2nc(-c3cc(CS(C)(=O)=O)cc(N4CCO[C@H](C)[C@H]4C)n3)ccc2[nH]1` [Example 8, 1-(5-(6-((2R,3R)-2,3-dimethylmorpholino)-4-((methylsulfonyl)methyl)pyridin-2-yl)-1Hpyrrolo[3,2-b]pyridin-2-yl)-Nmethylmethanamine] here?
The IC50 was 2.51 to 25.1 nM.

With `CC[C@H]1COCCN1c1cc(CS(=O)(=O)N(C)C)nc(-c2ccc3[nH]c(CO)cc3n2)n1` [Example 9, 1-{6-[(3S)-3-ethylmorpholin-4-yl]-2-[2-(hydroxymethyl)-1H-pyrrolo[3,2-b]pyridin-5-yl]pyrimidin-4-yl}-N,N-dimethylmethanesulfonamide] as the molecule, how does the IC50 read?
The IC50 was 2.51 to 25.1 nM.

For `CC[C@H]1COCCN1c1cc(CS(=O)(=O)NC)nc(-c2ccc3[nH]c(CO)cc3n2)n1` [Example 10, 1-{6-[(3S)-3-ethylmorpholin-4-yl]-2-[2-(hydroxymethyl)-1H-pyrrolo[3,2-b]pyridin-5-yl]pyrimidin-4-yl}-N-methylmethanesulfonamide], which IC50 is on record?
Its IC50 is 2.51 to 25.1 nM.

For `CC[C@H]1COCCN1c1cc(C2(S(C)(=O)=O)CCOCC2)nc(-c2ccc3[nH]c(C)cc3n2)n1` [Example 13, (3S)-3-ethyl-4-[6-(4-methanesulfonyloxan-4-yl)-2-{2-methyl-1H-pyrrolo[3,2-b]pyridin-5-yl}pyrimidin-4-yl]morpholine], which IC50 is on record?
The IC50 was 2.51 to 25.1 nM.

`CC[C@H]1COCC(=O)N1c1cc(CS(C)(=O)=O)nc(-c2ccc3[nH]c(C)cc3n2)n1` [Example 14, (5S)-5-ethyl-4-[6-(methanesulfonylmethyl)-2-{2-methyl-1H-pyrrolo[3,2-b]pyridin-5-yl}pyrimidin-4-yl]morpholin-3-one] was tested. Which IC50 did it give?
The IC50 was 2.51 to 25.1 nM.

Which IC50 does the source give for `CCc1cc2nc(-c3nc(CS(C)(=O)=O)cc(N4C(=O)COC[C@@H]4CC)n3)ccc2[nH]1` [Example 15, (5S)-5-ethyl-4-(2-{2-ethyl-1H-pyrrolo[3,2-b]pyridin-5-yl}-6-(methanesulfonylmethyl)pyrimidin-4-yl)morpholin-3-one] here?
The IC50 was 2.51 to 25.1 nM.

For `CC[C@H]1COCCN1c1cc(CS(=O)(=O)N(C)C)nc(-c2ccc3[nH]c(CNC)cc3n2)n1` [Example 16, 1-{6-[(3S)-3-ethylmorpholin-4-yl]-2-{2-[(methylamino)methyl]-1H-pyrrolo[3,2-b]pyridin-5-yl}pyrimidin-4-yl}-N,N-dimethylmethanesulfonamide], which IC50 is on record?
Its IC50 is 2.51 to 25.1 nM.

`CC[C@H]1COCCN1c1cc(CS(N)(=O)=O)cc(-c2ccc3[nH]c(C)cc3n2)n1` [Example 23, (S)-(2-(3-ethylmorpholino)-6-(2-methyl-1H-pyrrolo[3,2-b]pyridin-5-yl)pyridin-4-yl)methanesulfonamide] was tested. Which IC50 did it give?
Its IC50 is 2.51 to 25.1 nM.

Which IC50 does the source give for `CC[C@H]1COCC(=O)N1c1cc(CS(C)(=O)=O)cc(-c2ccc3[nH]c(C)cc3n2)n1` [Example 24, (S)-5-ethyl-4-(6-(2-methyl-1H-pyrrolo[3,2-b]pyridin-5-yl)-4-((methylsulfonyl)methyl)pyridin-2-yl)morpholin-3-one] here?
Its IC50 is 2.51 to 25.1 nM.

How did the IC50 turn out when `CC[C@H]1COCC(=O)N1c1cc(C2(S(C)(=O)=O)CCOCC2)cc(-c2ccc3[nH]c(C)cc3n2)n1` [Example 25, (S)-5-ethyl-4-(6-(2-methyl-1H-pyrrolo[3,2-b]pyridin-5-yl)-4-(4-(methylsulfonyl)tetrahydro-2H-pyran-4-yl)pyridin-2-yl)morpholin-3-one] was run?
Its IC50 is 2.51 to 25.1 nM.

How did the IC50 turn out when `CC[C@H]1COCC(=O)N1c1cc(C2(S(C)(=O)=O)CCOCC2)cc(-c2ccc3[nH]c(CO)cc3n2)n1` [Example 26] was run?
The IC50 was 2.51 to 25.1 nM.
